Entries after “also recorded” stand apart in the source; their conditions may differ.
What was measured:
[1] = test system: Cell Line 1 (CHO) expressing Antibody 1; experiment: Aggregate content (SEC) of Antibody 1, Cell Line 1 shake flask fed-batch culture; type: cell-based, Chinese Hamster; details: shaker
Experimental: (§1) A recombinant Chinese Hamster Ovary (CHO) cell line (Cell Line 1) expressing a humanized monoclonal antibody (Antibody 1) was evaluated in 2 different cultures vessels (shaker flasks and 3 L laboratory-scale bioreactors). The cell line was of CHO DUX-B11 origin based on a DHFR (dihydrofolate reductase) expression system and cultured in a chemically defined basal media, and fed periodically with a chemically-defined feed media (CDFM). The media utilized throughout all of the experiments were chemically-defined, and both animal-component free, and protein-free. Each of the respective media were supplemented as needed with selected bioflavonoids to evaluate for their potential impact on the resulting acidic species profile. In preparation of the cultures, the cell lines were serially expanded through separate seed train inoculums to generate enough cells for inoculation. Process conditions utilized during the cultures were slightly different depending on the culture scale, but similar within each scale to the respective non-bioflavonoid supplemented control conditions. All bioflavonoids utilized were purchased from Sigma-Aldrich (St. Louis, Mo.).
Protein A purified antibody samples from Cell Line 1 were diluted when necessary to 0.5-5 mg/mL in 1×PBS, and measured on a TSKgel G3000SWXL column (Tosoh Bioscience, South San Francisco, Calif.) using an isocratic gradient on an HPLC system with detection at 280 nm. High molecular weight (HMW), monomer, and low molecular weight (LMW) species were assigned and subsequently quantitated based on the chromatographic profile.
(§2) In this Example, EGCG was added into the feed (cell culture medium) at the concentration range of 5 mg/L (low), 20 mg/L (mid) and 50 mg/L (high) in a shaker experiment to determine the impact of EGCG on product quality of a humanized monoclonal antibody (Antibody 1). Detailed cell culture conditions are as described in Table 1.

[2] = test system: Cell Line 1 (CHO) expressing Antibody 1; experiment: Intracellular ROS by flow cytometry (H2-DCF), Cell Line 1 3 L bioreactor culture; type: cell-based, Chinese Hamster; details: bioreactor cultures; Days 6, 8, 12, 15; vs unsupplemented control
Experimental: At least 10×10^6 cells were harvested from 3 L bioreactor cultures on Days 6, 8, 12, and 15 after inoculation. Immediately after sampling, the samples were centrifuged and the cell pellet was washed with 1×PBS, and re-suspended in 1 mL of pre-warmed 1×PBS. 2 μL of 2 mM H2-DCF (Life Technologies, Grand Island, N.Y.) in DMSO (Sigma-Aldrich, St. Louis, Mo.) was then added and incubated at 37° C. for 30 minutes and covered from light. The cell suspension was then centrifuged and resuspended in 1×PBS twice to wash the cells and remove residual fluorophore. The cells were then loaded onto a FACSCalibur (Becton Dickinson, Franklin Lakes, N.J.) flow cytometer for the measurement of intracellular ROS at 492-495 nm/517-527 nm excitation/emission.

[3] = test system: Cell Line 3 (CHO) expressing DVD1; experiment: Cell culture performance, Cell Line 3 shake flask culture; details: shaker
[4] = test system: Cell Line 1 (CHO) expressing Antibody 1; experiment: Cell culture performance (cell growth, viability, titer), Cell Line 1 shake flask fed-batch culture; type: cell-based, Chinese Hamster
Experimental: as §1
(§3) Viable cell density (VCD) and cell viability values were measured through trypan blue exclusion via Cedex automated cell counters (Roche Applied Science, Indianapolis, Ind.), glucose and lactate values were measured with a ABL-805 (Radiometer Medical, Denmark) blood gas analyzer. Offline pH, dissolved oxygen (DO), and pCO2 measurements were performed as needed with an ABL-805 (Radiometer Medical, Denmark) blood gas analyzer. Osmolality was measured as needed on a Multi-Osmette 2430 osmometer (Precision Systems, Natick, Mass.).
(§4) Antibody titers were measured from crude cell culture harvests on a Poros A™ (Life Technologies, Carlsbad, Calif.) affinity column using an HPLC system operating with a low pH, step elution gradient with detection at 280 nm. Absolute concentrations were assigned with respect to reference standard calibration curves.
as §2
However, it was not clear whether or not additional bioflavonoids would also have the same effects. To evaluate the impact of alternative bioflavonoids, fed-batch shake flask cultures were initiated with CDFM supplemented with 3 different concentrations of genistein, rutin, and naringin, in addition to EGCG. Cell growth, viability, as well as titers and acidic species variants were measured.
To evaluate the impact of other bioflavonoids, fed-batch shake flask cultures were initiated with CDFM supplemented with multiple concentrations of rutin. Cell growth, viability, as well as titers and acidic species variants were measured and shown in FIGS. 14 and 15, respectively.

[5] = test system: Cell Line 1 (CHO) expressing Antibody 1; experiment: Cell culture performance (cell growth, viability, titer), Cell Line 1 3 L bioreactor fed-batch culture; type: cell-based, Chinese Hamster
Experimental: as §1, §3, §4
In the next experiment, lab-scale bioreactors were used to (1) confirm the shaker experiment results and (2) to determine whether higher concentration range of EGCG is suitable for supplementing into cell culture. EGCG was added to the feed of the batch culture at the concentrations of 20 mg/L (mid), 50 mg/L (high) and 125 mg/L (high+) and 250 mg/L (high++) in this reactor experiment.
Cell Line 1 was evaluated in larger-scale feed batch cultures with the feed media supplemented with various bioflavonoids. […] By contrast, cell growth performance was slightly different for the 0.1 g/L EGCG supplemented condition. […] However, the cell viability remained high at 0.1 g/L EGCG. All cultures were successfully harvested on Day 15 post-inoculation. The harvest titers measured from the evaluated cultures were similar.
Cell Line 1 was also evaluated in laboratory-scale fedbatch cultures with the feed media supplemented with various bioflavonoids. […] Cell growth performance was slightly different however with the 0.1 g/L EGCG supplemented condition. […] All cultures were able to be successfully harvested on Day 15 post-inoculation.

[6] = concentrations above 0.1 g/L in CDFM, shake flask

Structure (SMILES): O=C(O[C@@H]1Cc2c(O)cc(O)cc2O[C@@H]1c1cc(O)c(O)c(O)c1)c1cc(O)c(O)c(O)c1 [EGCG, epigallocatechin gallate]
- reduction of aggregation content, relative value ([1]; 5 mg/L in feed): 9%
- reduction of aggregation content, relative value ([1]; 20 mg/L in feed): 23%
- reduction of aggregation content, relative value ([1]; 50 mg/L in feed): 44%
- intracellular ROS level [2]: marked reduction of overall ROS level; also recorded: reduced the intracellular ROS level in a dose-dependent fashion
- growth profile, viability and productivity vs control ([3]; 0.02, 0.05 and 0.1 g/L in feed): performed very similarly to control cultures
- viability decrease compared to control ([3]; 0.2 g/L in feed): 15%
- cell growth vs control ([4]; 0.1 g/L in CDFM, shake flask): significantly lower than that of the control culture
- cell viability vs control ([4]; 0.1 g/L in CDFM, shake flask, cultures proceeded until Day 12): comparable to the control
- impact on cell culture performance (cell growth, viability, titer) ([4]; 5, 20 and 50 mg/L in feed, shaker): no impact on cell culture performance
- cell growth [4, 6]: adversely impacted
- culture duration reached before viability became too low [4, 6]: 8 days
- harvest titer ([4]; higher levels of supplement, shake flask, Day 12 harvest): decreased titer
- peak viable cell density ([5]; 0.05 g/L in CDFM, bioreactor, Day 8): approximately 12×10^6 cells/mL
- harvest titer vs control ([5]; 0.05 g/L in CDFM, bioreactor, Day 15 harvest): outperforming the control condition by a nominal amount; also recorded: outperformed the control condition by a nominal amount
- cell growth profile vs unsupplemented control ([5]; 0.1 g/L in CDFM, bioreactor): lower than the unsupplemented control culture
- cell viability ([5]; 0.1 g/L in CDFM, bioreactor): remained high
- impact on cell culture performance ([5]; 250 mg/L in feed, bioreactor): reduction in early cell culture viability and titer reduction
- impact on cell culture performance (cell growth, viability, titer) ([5]; 20, 50 and 125 mg/L in 1.5×JCL5 feed media, bioreactor): no impact on cell culture performance
- concentration (turning point) at which peak viable cell density began to drop lower than unsupplemented control ([5]; Cell Line 1): 125 µg/mL

Source: patent US9416181B2, “Compositions for cell culture and methods of using the same” (AbbVie Inc., priority 2013, dated 2016)
